Measurements reported in patent US12527775B2 (priority 2020, dated 2026).
Like-named read-outs stand apart in the source and are kept apart here.

Key:
[1] = molecular target: human recombinant 5-HT2C receptor (Homo sapiens (Human), UniProt P28335); experiment: biochemical; format: binding
Description: Test Example 2: 5-HT2C Receptor Binding Inhibition Test
(Each experimental condition)
Cell membrane: 0.5 μg of Jump-In HEK cell membrane (expressing human recombinant 5-HT2C receptor) per well
Assay buffer: Tris-HCl 50 mmol/L (pH 7.4) containing NaCl 120 mmol/L, MgCl2·6H2O 1 mmol/L, KCl 5 mmol/L, 0.1% BSA and CaCl2) 2 mmol/L
Radioactive ligand: [^3H]-Mesulergine with a final concentration of 1 nmol/L
(§1) Non-specific ligand: Serotonin HCl with a final concentration of 500 μmol/L
(§2) The Kd value was calculated when the lot of cell membrane was changed. […] The radioactive ligand solution was serially diluted from 16 nM at a 2-fold ratio and the count was confirmed with a liquid scintillator. […] After that, filtration was performed with Cell harvester (PerkinElmer). The radioactive ligand solution was dispensed into an empty well of the GF/B UniFilter plate at 10 μL/well. […] The GF/B UniFilter plate was allowed to stand overnight at room temperature. […] The Saturation curve was drawn from the measured value, and the Kd value was calculated from the slope of the Scatchard Plot.
(§3) (Binding Test of the Compound According to the Present Invention)
(§4) After that, filtration was performed with Cell harvester (PerkinElmer).

[2] = molecular target: human recombinant 5-HT2A receptor (Homo sapiens (Human), UniProt P28223); experiment: biochemical; format: binding
Description: Test Example 1: 5-HT2A Receptor Binding Inhibition Test
(Each Experimental Condition)
Cell membrane: 15 μg of Jump-In HEK cell membrane (expressing human recombinant 5-HT2A receptor) per well
Assay buffer: Tris-HCl 50 mmol/L (pH 7.4) containing NaCl 120 mmol/L, MgCl2·6H2O 1 mmol/L, KCl 5 mmol/L, 0.1% BSA and CaCl2 2 mmol/L
Radioactive ligand: [^3H]-Ketanserin with a final concentration of 3 nmol/L
as §1, §2, §3, §4

[3] = human serotonin 5-HT2C receptor binding, [3H]-Mesulergine, read-out: h-5-HT2C Ki
[4] = [3H]-Ketanserin 3 nmol/L, Jump-In HEK cell membrane, class symbols, read-out: h-5-HT2A Ki
[5] = [3H]-Mesulergine 1 nmol/L, Jump-In HEK cell membrane, read-out: human serotonin 5-HT2C receptor binding activity, Ki
[6] = [3H]-Ketanserin 3 nmol/L, Jump-In HEK cell membrane, read-out: human serotonin 5-HT2A receptor binding activity, Ki

Chain of human recombinant 5-HT2C receptor (P28335 whole entry, looked up): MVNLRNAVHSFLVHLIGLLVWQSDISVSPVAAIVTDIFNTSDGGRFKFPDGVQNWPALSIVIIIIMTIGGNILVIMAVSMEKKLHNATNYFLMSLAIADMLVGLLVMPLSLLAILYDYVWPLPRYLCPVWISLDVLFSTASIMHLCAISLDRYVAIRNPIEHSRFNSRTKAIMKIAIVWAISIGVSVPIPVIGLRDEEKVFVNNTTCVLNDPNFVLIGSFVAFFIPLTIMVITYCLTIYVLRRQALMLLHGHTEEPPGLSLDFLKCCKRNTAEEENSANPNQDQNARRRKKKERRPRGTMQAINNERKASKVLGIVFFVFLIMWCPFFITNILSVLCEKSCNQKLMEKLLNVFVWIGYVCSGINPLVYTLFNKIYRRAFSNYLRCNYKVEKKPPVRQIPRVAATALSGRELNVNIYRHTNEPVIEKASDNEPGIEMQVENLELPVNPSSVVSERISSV

Structure (SMILES)	Ki [1, 3] [nM]	Ki [2, 4] [nM]	other results
CC(C)COc1ccc(CNC(=O)N(Cc2ncccc2F)[C@@H]2CCN(C)C[C@@H]2F)cc1 (racemic) [Compound I-069]	> 100	10 to 100	
CC(C)COc1ccc(CNC(=O)N(Cc2ncccc2F)[C@@H]2CCNC[C@@H]2F)cc1 (racemic) [Compound I-073]	> 100	10 to 100	
CC(C)COc1ccc(CNC(=O)N(Cc2ccc(F)cn2)[C@H]2CCN(C)C[C@@H]2O)cc1 (racemic) [Compound I-088]			Ki [1, 5]: 134 nM; Ki [2, 6]: 25.7 nM
CC(C)COc1ccc(CNC(=O)N(Cc2ccn(C)n2)C2CCNCC23CC3)cc1 (racemic) [Compound I-090]	< 10	< 10	
CC(C)COc1ccc(CNC(=O)N(Cc2ccc(F)cn2)C2CCNCC2(F)F)cc1 (racemic) [Compound I-091]	< 10	< 10	
CC(C)COc1ccc(CNC(=O)N(Cc2ccn(C)c2)[C@@H]2CCNC[C@@H]2F)cc1 (racemic) [Compound I-093]	< 10	< 10	
Cc1cc(CN(C(=O)NCc2ccc(OCC(C)C)cc2)C2CCN(C)CC23CC3)nn1C (racemic) [Compound I-094]	< 10	< 10	
COc1ccc(CNC(=O)N(Cc2ccc(F)cn2)C2CCN(C)CC23CC3)cc1 (racemic) [Compound I-099]			Ki [1]: < 10 nM; Ki [2]: < 10 nM
Cc1ccc(CNC(=O)N(Cc2ccc(F)cn2)C2CCN(C)CC23CC3)cc1 (racemic) [Compound I-100]	10 to 100	< 10	
Cc1ccc(CNC(=O)N(Cc2ccc(F)cn2)C2CCNCC23CC3)cc1 (racemic) [Compound I-101]	10 to 100	< 10	
COc1ccc(CNC(=O)N(Cc2cc(C)n(C)n2)C2CCN(C)CC23CC3)cc1 (racemic) [Compound I-104]	< 10	< 10	
Cc1ccc(CNC(=O)N(Cc2cc(C)n(C)n2)C2CCN(C)CC23CC3)cc1 (racemic) [Compound I-105]	< 10	< 10	
CCCOc1ccc(CNC(=O)N(Cc2ccn(C)n2)C2CCNCC23CC3)cc1 (racemic) [Compound I-107]	10 to 100	< 10	
CC(C)COc1ccc(CNC(=O)N(Cc2ccn(C)c2)[C@@H]2CCN(C)C[C@@H]2F)cc1 (racemic) [Compound I-108]	< 10	< 10	
CCCOc1ccc(CNC(=O)N(Cc2cc(C)n(C)n2)C2CCN(C)CC23CC3)cc1 (racemic) [Compound I-109]	< 10	< 10	
CN1CCC(N(Cc2ccn(C)n2)C(=O)NCc2ccc(OCC3CC3)cc2)C2(CC2)C1 (racemic) [Compound I-110]	< 10	< 10	
CN1CCC(N(Cc2ccn(C)n2)C(=O)NCc2ccc(OC(F)F)cc2)C2(CC2)C1 (racemic) [Compound I-111]	< 10	< 10	
CC(C)COc1ccc(CNC(=O)N(Cc2ccc(F)cn2)C2CCN(C)C3(CC3)C2)cc1 (racemic) [Compound I-136]			Ki [1, 5]: 148 nM; Ki [2, 6]: 8.02 nM
CC(C)COc1ccc(CNC(=O)N(Cc2ccc(Cl)cn2)C2CCN(C)CC2)cc1 [Compound I-009]			Ki [1, 5]: 7.92 nM; Ki [2, 6]: 0.291 nM

Structure (SMILES)	Ki [1, 3] [nM]	Ki [2, 4] [nM]	other results
CC(C)COc1ccc(CNC(=O)N(Cc2ccn(C)n2)C2CCN(C)CC2)cc1 [Compound I-021]			Ki [1, 5]: 50.7 nM; Ki [2, 6]: 0.858 nM
CC(C)COc1ccc(CNC(=O)N(Cc2cc3ccccc3cn2)C2CCN(C)CC2)cc1 [Compound I-037]			Ki [1, 5]: 28.2 nM; Ki [2, 6]: 0.654 nM
CC(C)COc1ccc(COC(=O)N(Cc2ccc(F)cn2)C2CCN(C)CC2)cc1 [Compound I-042]			Ki [1, 5]: 2.31 nM; Ki [2, 6]: 1.15 nM
COc1ccc(CNC(=O)N(Cc2ccc(F)cn2)C2CCN(C)CC2)cc1 [Compound I-043]			Ki [1, 5]: 55.7 nM; Ki [2, 6]: 2.52 nM
CC(C)COc1ccc(CC(=O)N(Cc2ccc(F)cn2)C2CCN(C)CC2)cc1 [Compound I-068]			Ki [1, 5]: 49.9 nM; Ki [2, 6]: 6.52 nM
CC(C)COc1ccc(CNC(=O)N(Cc2ccc(F)c3cccnc23)C2CCN(C)CC2)cc1 [Compound I-070]	10 to 100	< 10	
CC(C)COc1ccc(CNC(=O)N(Cc2ccc(F)c3ccoc23)C2CCN(C)CC2)cc1 [Compound I-071]			Ki [1, 5]: 60.7 nM; Ki [2, 6]: 13.3 nM
CC(C)COc1ccc(CNC(=O)N(Cc2cc3c(cn2)OCCO3)C2CCN(C)CC2)cc1 [Compound I-072]			Ki [1, 5]: 617 nM; Ki [2, 6]: 219 nM
CC(C)COc1ccc(CNC(=O)N(Cc2cn(C)c3cccnc23)C2CCN(C)CC2)cc1 [Compound I-074]	10 to 100	10 to 100	
CN1CCC(N(Cc2ccc(F)cn2)C(=O)NCc2cccc(O)c2)CC1 [Compound I-075]			Ki [1, 5]: 1310 nM; Ki [2, 6]: 130 nM
CN1CCC(N(Cc2ccc(F)cn2)C(=O)NCc2ccccc2O)CC1 [Compound I-076]			Ki [1, 5]: 263 nM; Ki [2, 6]: 62 nM
CC(C)COc1ccc(CNC(=O)N(Cc2ncc(O)cc2F)C2CCN(C)CC2)cc1 [Compound I-077]	> 100	10 to 100	
Cc1cnc(CN(C(=O)NCc2ccc(OCC(C)C)cc2)C2CCN(C)CC2)cn1 [Compound I-078]	> 100	10 to 100	
CC(C)COc1ccc(CNC(=O)N(Cc2cn(C)c3ccccc23)C2CCN(C)CC2)cc1 [Compound I-079]	> 100	> 100	
CC(C)COc1ccc(CNC(=O)N(Cc2ncc(F)cc2O)C2CCN(C)CC2)cc1 [Compound I-080]	10 to 100	10 to 100	
CC(C)COc1ccc(CNC(=O)N(Cc2ccc(F)c3cc[nH]c23)C2CCN(C)CC2)cc1 [Compound I-081]	> 100	> 100	
CN1CCC(N(Cc2ccc(F)cn2)C(=O)NCc2ccc(Br)cc2)CC1 [Compound I-082]			Ki [1, 5]: 28.8 nM; Ki [2, 6]: 3.74 nM
C=Cc1ccc(CNC(=O)N(Cc2ccc(F)cn2)C2CCN(C)CC2)cc1 [Compound I-083]	10 to 100	< 10	
CN1CCC(N(Cc2ccc(F)cn2)C(=O)NCc2ccc(Cl)cc2)CC1 [Compound I-084]			Ki [1, 5]: 65.2 nM; Ki [2, 6]: 5.61 nM

Structure (SMILES)	Ki [1, 3] [nM]	Ki [2, 4] [nM]	other results
CC(C)COc1ccc(CNC(=O)N(Cc2ccc(F)cn2)[C@@H]2CCN(C)C[C@@H]2F)cc1 [Compound I-085]			Ki [1, 5]: 96.2 nM; Ki [2, 6]: 23.8 nM
CC(C)COc1ccc(CNC(=O)N(Cc2ccc(F)cn2)C2CCN(C)C(CO)C2)cc1 (stereo not shown) [Compound I-089]	10 to 100	< 10	
CN1CCC(N(Cc2ccc(F)cn2)C(=O)NCc2ccc(OCC(C)(F)F)cc2)CC1 [Compound I-092]	< 10	< 10	
CN1CCC(N(Cc2ccc(F)cn2)C(=O)NCc2ccc(OCC(F)(F)F)cc2)CC1 [Compound I-095]	< 10	< 10	
Cc1cc(CN(C(=O)NCc2ccc(OCC(C)C)cc2)C2CCN(C)CC2)nn1C [Compound I-096]	10 to 100	< 10	
C[C@H](F)COc1ccc(CNC(=O)N(Cc2ccc(F)cn2)C2CCN(C)CC2)cc1 [Compound I-097]	10 to 100	< 10	
C[C@@H](F)COc1ccc(CNC(=O)N(Cc2ccc(F)cn2)C2CCN(C)CC2)cc1 [Compound I-098]	10 to 100	< 10	
CC(C)COc1ccc(CNC(=O)N(Cc2ccc(F)cn2)[C@H]2CCN(C)C[C@H]2F)cc1 [Compound I-103]	< 10	< 10	
COc1ccc(COC(=O)N(Cc2ccn(C)c2)C2CCN(C)CC2)cc1 [Compound I-106]	< 10	< 10	
CC(C)CNc1ccc(CNC(=O)N(Cc2ccc(F)cn2)C2CCN(C)CC2)cc1 [Compound I-112]	< 10	< 10	
CN1CCC(N(Cc2ccc(F)cn2)C(=O)NCc2ccc(OC3CC3)cc2)CC1 [Compound I-113]	10 to 100	< 10	
CC(C)COc1ccc(CNC(=O)N(Cc2ccc(F)cn2)[C@H]2CCNC[C@H]2F)cc1 [Compound I-115]	< 10	< 10	
CCc1ccc(CNC(=O)N(Cc2ccc(F)cn2)C2CCN(C)CC2)cc1 [Compound I-116]			Ki [1, 5]: 12.2 nM; Ki [2, 6]: 1.45 nM
CN1CCC(N(Cc2ccc(F)cn2)C(=O)NCc2ccc(OCC(F)(F)C(F)F)cc2)CC1 [Compound I-117]	< 10	< 10	
CC(C)COc1ccc(CNC(=O)N(Cc2ccn(C(F)F)n2)C2CCN(C)CC2)cc1 [Compound I-118]	10 to 100	< 10	
CCCOc1ccc(CNC(=O)N(Cc2ccc(F)cn2)[C@H]2CCNC[C@H]2F)cc1 [Compound I-119]	< 10	< 10	
Cc1ccc(CNC(=O)N(Cc2ccc(F)cn2)[C@H]2CCN(C)CC23CC3)cc1 [Compound I-120]	< 10	< 10	
CN1CCC(N(Cc2ccc(F)cn2)C(=O)NCc2ccc(N(C)C)cc2)CC1 [Compound I-121]	> 100	10 to 100	
